According to ChEMBL document CHEMBL4219172, “Synthesis and biological evaluation of pyrimidine derivatives as novel human Pin1 inhibitors” (Bioorg Med Chem, 2018):

What follows are compounds tested against T1, Peptidyl-prolyl cis-trans isomerase NIMA-interacting 1 (Homo sapiens, UniProt Q13526) (assay: Inhibition of human N-terminal His6-tagged Pin1 PPIase activity expressed in Escherichia coli BL21 using Suc-Ala-Glu-cis-Pro-Phe-4-nitroanilide as substrate preincubated for 10 mins followed by substrate addition monitored for 90 secs by protease enzyme coupled based spectrophotometric analysis). Conditions: not given.
T1 sequence (Q13526 whole entry): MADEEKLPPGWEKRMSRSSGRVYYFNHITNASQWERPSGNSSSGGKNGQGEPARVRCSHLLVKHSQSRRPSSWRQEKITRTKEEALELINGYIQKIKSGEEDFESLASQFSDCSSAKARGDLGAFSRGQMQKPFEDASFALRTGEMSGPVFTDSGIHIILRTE

IC50 [µM] | Structure (SMILES)
2.52 | O=[N+]([O-])c1cnc(Cl)nc1Oc1ccccc1F
> 100 | O=[N+]([O-])c1cncnc1Oc1cccc2ocnc12
18.9 | O=C(O)c1cnc(Cl)nc1Oc1cccc2ocnc12
> 100 | FC(F)(F)c1cnc(Cl)nc1Oc1ccccc1
2.17 | Cn1nc(-c2ccccc2)cc1Oc1nc(Cl)ncc1[N+](=O)[O-]
> 100 | O=[N+]([O-])c1cnc(-c2ccccc2)nc1Oc1cccc2ocnc12
7.27 | O=[N+]([O-])c1cnc(OCCc2ccccc2)nc1Cl
> 100 | O=[N+]([O-])c1ccc(Cl)nc1Oc1cccc2ocnc12
0.82 | CC1=C(/C=C/C(C)=C/C=C/C(C)=C/C(=O)O)C(C)(C)CCC1 [TRETINOIN]
> 100 | O=[N+]([O-])c1cnc(Cl)nc1OC1CCCCC1
> 100 | Clc1ncc(-c2nnco2)c(Nc2ccccc2)n1
3.48 | O=[N+]([O-])c1cnc(Cl)nc1Oc1ccccn1
6.66 | O=[N+]([O-])c1cnc(Cl)nc1Nc1ccccc1
9.05 | N#Cc1ccccc1Oc1nc(Cl)ncc1[N+](=O)[O-]
4.36 | N#Cc1cnc(Cl)nc1Oc1ccccc1
8.33 | O=[N+]([O-])c1cnc(Cl)nc1OCc1ccccc1
> 100 | FC(F)(F)c1cnc(Cl)nc1Oc1cccc2ocnc12
22.6 | O=[N+]([O-])c1cnc(Cl)nc1Oc1cccc2ccccc12
2.24 | O=[N+]([O-])c1cnc(Cl)nc1Oc1ccccc1
> 100 | O=[N+]([O-])c1cnc(-c2ccc3ccccc3c2)nc1Oc1cccc2ocnc12
34 | O=[N+]([O-])c1cnc(Cl)nc1Oc1ccc(-c2ccccc2)cc1
> 100 | Clc1ncc(Cl)c(Oc2ccccc2)n1

IC50 [µM] | Structure (SMILES)
> 100 | O=[N+]([O-])c1cnc(Cl)nc1NC1CCCCC1
> 100 | Cc1cnc(Cl)nc1Oc1cccc2ocnc12
> 100 | O=[N+]([O-])c1cnc(Cl)nc1NCCc1ccccc1
33.5 | Nc1ccccc1Oc1nc(Cl)ncc1[N+](=O)[O-]
5.04 | COc1cccc(Oc2nc(Cl)ncc2[N+](=O)[O-])c1
4.03 | COc1ccccc1Oc1nc(Cl)ncc1[N+](=O)[O-]
> 100 | O=[N+]([O-])c1cnc(Cl)nc1NC1CCCC1
> 100 | O=[N+]([O-])c1cnc(Cl)cc1Oc1cccc2ocnc12
5.2 | CS(=O)(=O)Nc1ccccc1Oc1nc(Cl)ncc1[N+](=O)[O-]
20.2 | O=C1C=CC(=O)N1c1cnc(Cl)nc1Nc1ccccc1
> 100 | COC(=O)c1cnc(Cl)nc1Oc1cccc2ocnc12
7.28 | O=[N+]([O-])c1cnc(OCc2ccccc2)nc1Cl
> 100 | CNc1nc(Cl)ncc1[N+](=O)[O-]
> 100 | O=C1CCC(=O)N1c1cnc(Cl)nc1Nc1ccccc1
> 100 | Cc1cnc(Cl)nc1Oc1ccccc1
16.6 | O=[N+]([O-])c1cnc(Cl)nc1Oc1ccc2ccccc2c1
> 100 | O=[N+]([O-])c1cnc(Cl)nc1OC1CCCC1
9.87 | Clc1ncc(-c2ncco2)c(Nc2ccccc2)n1
1.68 | O=[N+]([O-])c1cnc(Cl)nc1Oc1cccc2ocnc12
4.08 | O=[N+]([O-])c1cnc(Cl)nc1OCCc1ccccc1
13.9 | O=[N+]([O-])c1cnc(CCc2ccccc2)nc1Cl

Structure (SMILES) | IC50 [µM]
O=C1C=CC(=O)c2c(O)cccc21 [JUGLONE] | 5.9

What follows are compounds tested against T1, Peptidyl-prolyl cis-trans isomerase NIMA-interacting 1 (assay: Inhibition of human N-terminal His6-tagged Pin1 PPIase activity expressed in Escherichia coli BL21 using Suc-Ala-Glu-cis-Pro-Phe-4-nitroanilide as substrate by beckman coulter-paradigm assay). Conditions: TDE = time-dependent effect.

inhibition | Structure (SMILES)
Tde | O=[N+]([O-])c1cnc(Cl)nc1OCc1ccccc1
Tde | O=[N+]([O-])c1cnc(Cl)nc1Oc1ccccc1
Tde | O=[N+]([O-])c1cnc(OCc2ccccc2)nc1Cl
Tde | O=[N+]([O-])c1cnc(Cl)nc1Oc1cccc2ocnc12
